Tests used:
[1] = tested on: NIH3T3-CD40L-activated PBMC; test: RT-PCR analysis of CTA expressed by ADHAPI-Cells/CD40L-B and control CD40L-B cells; type: cell-based, human; conditions: 5-AZA-CdR: four pulses of 1 μM every 12 h, restimulation with NIH3T3-CD40L, then 48 h (= ADHAPI-Cells/CD40L-B)
Method: (§1) Experimental conditions and primers utilized to assess CTA expression on investigated cells were as follows:
PBMC (2×10^6 cells/ml) were co-cultured with semiconfluent, x-ray treated (75 Gy) NIH3T3-CD40L at 37° C. in a 5% CO2 humidified atmosphere, in Basal Iscove's medium supplemented with 10% heat-inactivated human AB serum, 2 mM L-glutamine, 2 ng/ml recombinant human (rh) interleukin 4 (rhIL-4), 50 μg/ml human transferrin, 5 μg/ml rh insulin, 5.5×10^−7 M cyclosporin A (CsA), 100 U/ml penicillin, and 100 μg/ml streptomycin sulphate (complete medium). After six days of incubation, PBMC were collected, washed twice with HBSS, resuspended at 1×10^6 cells/ml in complete medium and co-cultured for additional 3 days at 37° C. in a 5% CO2 humidified atmosphere with NIH3T3-CD40L freshly prepared as described above. This procedure was repeated every 2-3 days to a maximum culture time of 16-18 days.
After 16-18 days of culture, activated PBMC were harvested and restimulated with NIH3T3-CD40L as described above; after an O/N incubation at 37° C. in a 5% CO2 humidified atmosphere, cultures were pulsed four times with 1 μM 5-aza-2′-deoxycytidine (5-AZA-CdR) every 12 h; then, cells were harvested and restimulated with NIH3T3-CD40L as described above and cultures were allowed to proceed for additional 48 h. Then cells were utilized for experimental procedures and/or frozen under viable conditions. Control cells (CD40L-B cells) were cultured under similar experimental conditions but without pulses of 5-AZA-CdR.

PWM-activated PBMC = test: RT-PCR analysis of CTA expressed by ADHAPI-Cells/PWM-PBMC and control PWM-PBMC cells; type: cell-based, human; conditions: 5-AZA-CdR: four pulses of 1 μM every 12 h, then 48 h culture (= ADHAPI-Cells/PWM-PBMC)
Method: as §1
PBMC (1.5×10^6 cells/ml) were added with PWM (3 μg/ml) and cultured for 48 h at 37° C. in a 5% CO2 humidified atmosphere in Basal Iscove's medium supplemented with 10% heat-inactivated human AB serum, 2 mM L-glutamine, 100 U/ml penicillin, 100 μg/ml streptomycin sulphate.
PWM-activated PBMC were pulsed four times with 1 μM 5-aza-2′-deoxycytidine (5-AZA-CdR) every 12 h; then, half of the culture medium was replaced with fresh medium and cultures were allowed to proceed for additional 48 h. Then cells were utilized for experimental procedures and/or frozen under viable conditions. Control cells (PWM-PBMC) were cultured under similar experimental conditions but without pulses of 5-AZA-CdR.

[2] = tested on: PWM-activated B-Lymphocytes; test: RT-PCR analysis of CTA expressed by ADHAPI-Cells/PWM-B and control PWM-B cells; type: cell-based, human; conditions: 5-AZA-CdR: four pulses of 1 μM every 12 h, then 48 h culture (= ADHAPI-Cells/PWM-B)
Method: as §1
Purified B-Lymphocytes (1.5×10^6 cells/ml) were added with PWM (3 μg/ml) and cultured for 48 h at 37° C. in a 5% CO2 humidified atmosphere in Basal Iscove's medium supplemented with 10% heat-inactivated human AB serum, 2 mM L-glutamine, 100 U/ml penicillin, 100 μg/ml streptomycin sulphate.
PWM-activated B-Lymphocytes were pulsed four times with 1 μM 5-aza-2′-deoxycytidine (5-AZA-CdR) every 12 h; then, half of the culture medium was replaced with fresh medium and cultures were allowed to proceed for additional 48 h. Then cells were utilized for experimental procedures and/or frozen under viable conditions. Control cells (PWM-B) were cultured under similar experimental conditions but without pulses of 5-AZA-CdR.

PHA-activated PBMC = test: RT-PCR analysis of CTA expressed by ADHAPI-Cells/PHA-PBMC and control PHA-PBMC; type: cell-based, human; conditions: 5-AZA-CdR: four pulses of 1 μM every 12 h, then 48 h culture (= ADHAPI-Cells/PHA-PBMC)
Method: as §1
PBMC (1.5×10^6 cells/ml) were added with PHA-M (10 μg/ml) and 100 UI/ml rhIL-2, and cultured for 48 h at 37° C. in a 5% CO2 humidified atmosphere in RPMI 1640 medium supplemented with 10% heat-inactivated foetal calf serum (or in Basal Iscove's medium supplemented with 10% heat-inactivated human AB serum), 2 mM L-glutamine, 100 U/ml penicillin, 100 μg/ml streptomycin sulphate (complete medium).
PHA-activated PBMC were pulsed four times with 1 μM 5-aza-2′-deoxycytidine (5-AZA-CdR) every 12 h; then, half of the culture medium was replaced with fresh complete medium without PHA-M and cultures were allowed to proceed for additional 48 h. Then cells were utilized for experimental procedures and/or frozen under viable conditions. Control cells (PHA-PBMC) were cultured under similar experimental conditions but without pulses of 5-AZA-CdR.

PHA+PWM-activated PBMC = test: RT-PCR analysis of CTA expressed by ADHAPI-Cells/PHA+PWM-PBMC and control PHA+PWM-PBMC; type: cell-based, human; conditions: 5-AZA-CdR: four pulses of 1 μM every 12 h, then 48 h culture (= ADHAPI-Cells/PHA+PWM-PBMC)
Method: as §1
PBMC (1.5×10^6 cells/ml) were added with PHA-M (10 μg/ml), PWM (3 μg/ml), 100 UI/ml rhIL-2 and cultured for 48 h at 37° C. in a 5% CO2 humidified atmosphere in Basal Iscove's medium supplemented with 10% heat-inactivated human AB serum (or with 10% heat-inactivated autologous serum), 2 mM L-glutamine, 100 U/ml penicillin, 100 μg/ml streptomycin sulphate (complete medium).
PHA+PWM-activated PBMC were pulsed four times with 1 μM 5-aza-2′-deoxycytidine (5-AZA-CdR) every 12 h; then, half of the culture medium was replaced with fresh complete medium without PHA or PWM and cultures were allowed to proceed for additional 48 h. Then cells were utilized for experimental procedures and/or frozen under viable conditions. Control cells (PHA+PWM-PBMC) were cultured under similar experimental conditions but without pulses of 5-AZA-CdR.

[3] = tested on: B-EBV+ lymphoblastoid cell lines; test: RT-PCR analysis of CTA expressed by ADHAPI-Cells/B-EBV and control B-EBV cells; type: cell-based, human; conditions: 5-AZA-CdR: four pulses of 1 μM every 12 h, then 48 h culture (= ADHAPI-Cells/B-EBV)
Method: B-EBV+ lymphoblastoid cell lines (7.5×10^5 cells/ml) were cultured in RPMI 1640 medium supplemented with 10% heat-inactivated foetal calf serum (or 10% heat-inactivated human AB serum) and 2 mM L-glutamine at 37° C. in a 5% CO2 humidified atmosphere, and pulsed four times with 1 μM 5-aza-2′-deoxycytidine (5-AZA-CdR) every 12 h; then, half of the culture medium was replaced with fresh medium and cultures were allowed to proceed for additional 48 h. Then cells were utilized for experimental procedures and/or frozen under viable conditions. Control cells (B-EBV cells) were cultured under similar experimental conditions but without pulses of 5-AZA-CdR.
Experimental conditions and primers utilized to assess CTA expression on investigated cells were as follows: […]

[4] = tested on: normal and malignant lymphoid cells; conditions: Shichijo S. et al Jpn. J. Cancer Res. 87, 751-756, 1996; cited from earlier work

Nc1ncn([C@H]2C[C@H](O)[C@@H](CO)O2)c(=O)n1 [5-AZA-CdR, 5-aza-2′-deoxycytidine]
GAGE-1-6 expression (RT-PCR) [1]: 14/14
MAGE-1 expression (RT-PCR) [1]: 10/10
MAGE-2 expression (RT-PCR) [1]: 9/10
MAGE-3 expression (RT-PCR) [1]: 10/11
MAGE-4 expression (RT-PCR) [1]: 11/11
NY-ESO-1 expression (RT-PCR) [1]: 14/14
SSX-2 expression (RT-PCR) [1]: 13/14
GAGE-1-6 expression (RT-PCR) (PWM-activated PBMC): 3/4
MAGE-1 expression (RT-PCR) (PWM-activated PBMC): 4/4
MAGE-2 expression (RT-PCR) (PWM-activated PBMC): 3/4
MAGE-3 expression (RT-PCR) (PWM-activated PBMC): 4/4
MAGE-4 expression (RT-PCR) (PWM-activated PBMC): 3/4
NY-ESO-1 expression (RT-PCR) (PWM-activated PBMC): 4/4
SSX-2 expression (RT-PCR) (PWM-activated PBMC): 3/4
GAGE-1-6 expression (RT-PCR) [2]: 4/4
MAGE-1 expression (RT-PCR) [2]: 4/4
MAGE-2 expression (RT-PCR) [2]: 4/4
MAGE-3 expression (RT-PCR) [2]: 4/4
MAGE-4 expression (RT-PCR) [2]: 4/4
NY-ESO-1 expression (RT-PCR) [2]: 4/4
SSX-2 expression (RT-PCR) [2]: 4/4
GAGE-1-6 expression (RT-PCR) (PHA-activated PBMC): 4/4
MAGE-1 expression (RT-PCR) (PHA-activated PBMC): 12/12
MAGE-2 expression (RT-PCR) (PHA-activated PBMC): 3/3
MAGE-3 expression (RT-PCR) (PHA-activated PBMC): 12/12
MAGE-4 expression (RT-PCR) (PHA-activated PBMC): 4/4
NY-ESO-1 expression (RT-PCR) (PHA-activated PBMC): 6/6
SSX-2 expression (RT-PCR) (PHA-activated PBMC): 6/6
GAGE-1-6 expression (RT-PCR) (PHA+PWM-activated PBMC): 7/7
MAGE-1 expression (RT-PCR) (PHA+PWM-activated PBMC): 7/7
MAGE-2 expression (RT-PCR) (PHA+PWM-activated PBMC): 7/7
MAGE-3 expression (RT-PCR) (PHA+PWM-activated PBMC): 7/7
MAGE-4 expression (RT-PCR) (PHA+PWM-activated PBMC): 7/7
NY-ESO-1 expression (RT-PCR) (PHA+PWM-activated PBMC): 7/7
SSX-2 expression (RT-PCR) (PHA+PWM-activated PBMC): 7/7
GAGE-1-6 expression (RT-PCR) [3]: 4/4
MAGE-1 expression (RT-PCR) [3]: 4/4
MAGE-3 expression (RT-PCR) [3]: 4/4
NY-ESO-1 expression (RT-PCR) [3]: 4/4
SSX-2 expression (RT-PCR) [3]: 4/4
induction of MAGE 1, 2, 3 and 6 [4]: induction of investigated CTA in selected samples tested
